In PMC9322052, “Synthesis and Biological Activity Screening of Newly Synthesized Trimethoxyphenyl-Based Analogues as Potential Anticancer Agents” (Molecules, 2022):

Test system: β-tubulin
Assay: Tubulin polymerization inhibition (beta-tubulin ELISA in HepG2 cells)
Assay type: cell-based, human
Details: HepG2 cells, each compound at its IC50 concentration (9 1.38, 10 2.52, 11 3.21, podo 2.08 μM), ELISA
Experimental: The selected candidates were tested at a concentration equal to their IC50 concentration dose value. […] See Section 3.3.2 in Supplementary Material. […] page 18: 3.3. Biological studies 3.3.1. Cytotoxic activity evaluation To measure the cytotoxic activity of the synthesized derivatives 2a-11 in hepatocel- lular carcinoma (HepG2) cell line (ATCC Cat No. HB-8065) as well as normal human liver cell line HL-7702 (ATCC Cat. No. 77402), cell viability assay was assessed using MTT assay method. Cells at density of 1 x 104 were seeded in a 96-well plate at 37 °C for 24 h under 5% CO2. After incubation, the cells were treated with different concentrations of the test compounds 2a-11 and incubated for 24 h, then 20 μl of MTT solution at 5 mg/mL was […] Dimethyl sulphoxide (DMSO) in volume of 100 μl was added to each well to dissolve the purple formazan that had formed. The color […] of the formazan product, which represents the growth condition of the cells, is quan- […] by using an ELISA plate reader (EXL 800, USA) at 570 nm absorbance. The experi- mental conditions were carried out with at least three replicates, and the experiments were repeated at least three times. 3.3.2. Tubulin inhibitions Assay […] according to the manufacturer's instructions using # abcam Human Beta-tubulin […] ELISA Kit ab245722. 3.3.3. Cell cycle analysis of compound 9 Cell cycle analysis in HepG2 cells was investigated using fluorescent Annexin V- FITC/ PI detection kit (BioVision EZCellTM Cell Cycle Analysis Kit Catalog #K920) by flow cytometry assay. […] twice in PBS. After that, the cells were incubated at 37 °C and 5% CO2. […] Apoptosis assay for compound 9 Apoptosis in HepG2 cells was investigated using fluorescent Annexin V-FITC/ PI de- tection kit (BioVision Annexin V-FITC Apoptosis Detection Kit, Catalog #: K101) by flow cy- tometry assay. […] The samples were immediately analyzed using FACS Calibur flow cytometer (Becton and Dickinson, Heidelberg, Germany). 3.3.5. Measurement of mitochondrial membrane potential (MMP) for compound 9 MMP was measured by FACS analysis using abcam ab113852TMRE Mitochondrial Membrane Potential Assay Kit with DiOC2(3) staining using MitoProbeTM DiOC2(3) Assay Kit for Flow Cytometry (M34150). After treatment with compound 9 at its IC50 concentra- tion, cells were stained with DiOC2(3) dye for 30 min in the incubator, then harvested and washed with PBS. […] The samples were immediately analyzed using cell Quest software. […] Effect on p53, Bax and Bcl-2 p53, Bax and Bcl2 enzyme activities in HepG2 cells were detected in the presence of com- pound 9 at its IC50 concentration (μM). The levels of the tumor suppressor gene p53, apoptotic markers Bax as well as the anti-apoptotic marker Bcl-2 were assessed using p53 ELISA kit, Human Bax ELISA kit and Bcl-2 Elisa kit. […]

With COc1ccc(C2=N/C(=C\c3cc(OC)c(OC)c(OC)c3)C(=O)NN2c2ccccc2)cc1OC [Compound 9, (Z)-3-(3,4-Dimethoxyphenyl)-2-Phenyl-5-(3,4,5-Trimethoxybenzylidene)-1,2-Dihydro-1,2,4-Triazin-6(5H)-one] the “β-tubulin polymerization inhibition percentage” value was 86.73%.
